# Assays:
# Assay in all cases: biochemical
# Design in all cases: DiscoverX KINOMEscan scanMAX competition binding panel, single concentration, percent of control; remaining binding: dose or concentration left out as unconfirmed
# Settings in all cases: KINOMEscan binding, percent of control; read-out: Table S4_SCANMAX REPORT - related to Fig. 1 / Percent Control
# [1] = target: GRK2 (Homo sapiens, UniProt P25098)
# Excerpt: (§1) Certain PTH are potent inhibitors of TLK1 ([Ronald et al., 2013]), and by inference TLK2, as these proteins must homo- and hetero-dimerize for full activation ([Mortuza et al., 2018]), in addition to being highly similar in sequence and structure, and thus similarly targetable. […] Two noteworthy observations are that PTHs are structurally different from many known ATP competitive inhibitors, and that J54 was carefully designed based on considerations reported previously for the THD—the Kinomescan has confirmed that J54 is specific to TLKs. We should point out that although PTH were the first reported inhibitors of TLKs ([Ronald et al., 2013]), other inhibitors particularly of TLK2 have since been reported ([Kim et al., 2016]), some based on structure docking ([Mortuza et al., 2018]), although neither their potency and effects in vivo nor their potential off-target effects have not been reported as they were selected from libraries of kinase inhibitors. Supplementary file mmc2.xlsx: Table S4. SCANMAX Table, Related to Figure 1 Kinomescan of J54 inhibitory activity on human kinases.
# [2] = target: ROS1 (Homo sapiens, UniProt P08922)
# Excerpt: as §1
# [3] = target: ERBB2 (Homo sapiens, UniProt P04626)
# Excerpt: as §1
# [4] = target: T1, MRCKA (Homo sapiens, UniProt Q5VT25)
# T1 construct: gene CDC42BPA
# Excerpt: as §1
# [5] = target: PLK1 (Homo sapiens, UniProt P53350)
# Excerpt: as §1
# [6] = target: CDK3 (Homo sapiens, UniProt Q00526)
# Excerpt: as §1
# [7] = target: TLK1 (Homo sapiens, UniProt Q9UKI8)
# Excerpt: as §1
# [8] = target: SGK3 (Homo sapiens, UniProt Q96BR1)
# Excerpt: as §1
# [9] = target: TIE1 (Homo sapiens, UniProt P35590)
# Excerpt: as §1
# [10] = target: T2, ABL1-nonphosphorylated (Homo sapiens, UniProt P00519)
# T2 construct: nonphosphorylated
# Excerpt: as §1
# [11] = target: TNK2 (Homo sapiens, UniProt Q07912)
# Excerpt: as §1
# [12] = target: TESK1 (Homo sapiens, UniProt Q15569)
# Excerpt: as §1
# [13] = target: FLT3(D835H) (Homo sapiens, UniProt P36888, D835H)
# Excerpt: as §1
# [14] = target: T3, ASK2 (Homo sapiens, UniProt O95382)
# T3 construct: gene MAP3K6
# Excerpt: as §1
# [15] = target: STK35 (Homo sapiens, UniProt Q8TDR2)
# Excerpt: as §1
# [16] = target: T4, YES (Homo sapiens, UniProt P07947)
# T4 construct: gene YES1
# Excerpt: as §1
# [17] = target: TTK (Homo sapiens, UniProt P33981)
# Excerpt: as §1
# [18] = target: TRPM6 (Homo sapiens, UniProt Q9BX84)
# Excerpt: as §1
# [19] = target: RIOK2 (Homo sapiens, UniProt Q9BVS4)
# Excerpt: as §1
# T2 sequence (P00519 whole entry): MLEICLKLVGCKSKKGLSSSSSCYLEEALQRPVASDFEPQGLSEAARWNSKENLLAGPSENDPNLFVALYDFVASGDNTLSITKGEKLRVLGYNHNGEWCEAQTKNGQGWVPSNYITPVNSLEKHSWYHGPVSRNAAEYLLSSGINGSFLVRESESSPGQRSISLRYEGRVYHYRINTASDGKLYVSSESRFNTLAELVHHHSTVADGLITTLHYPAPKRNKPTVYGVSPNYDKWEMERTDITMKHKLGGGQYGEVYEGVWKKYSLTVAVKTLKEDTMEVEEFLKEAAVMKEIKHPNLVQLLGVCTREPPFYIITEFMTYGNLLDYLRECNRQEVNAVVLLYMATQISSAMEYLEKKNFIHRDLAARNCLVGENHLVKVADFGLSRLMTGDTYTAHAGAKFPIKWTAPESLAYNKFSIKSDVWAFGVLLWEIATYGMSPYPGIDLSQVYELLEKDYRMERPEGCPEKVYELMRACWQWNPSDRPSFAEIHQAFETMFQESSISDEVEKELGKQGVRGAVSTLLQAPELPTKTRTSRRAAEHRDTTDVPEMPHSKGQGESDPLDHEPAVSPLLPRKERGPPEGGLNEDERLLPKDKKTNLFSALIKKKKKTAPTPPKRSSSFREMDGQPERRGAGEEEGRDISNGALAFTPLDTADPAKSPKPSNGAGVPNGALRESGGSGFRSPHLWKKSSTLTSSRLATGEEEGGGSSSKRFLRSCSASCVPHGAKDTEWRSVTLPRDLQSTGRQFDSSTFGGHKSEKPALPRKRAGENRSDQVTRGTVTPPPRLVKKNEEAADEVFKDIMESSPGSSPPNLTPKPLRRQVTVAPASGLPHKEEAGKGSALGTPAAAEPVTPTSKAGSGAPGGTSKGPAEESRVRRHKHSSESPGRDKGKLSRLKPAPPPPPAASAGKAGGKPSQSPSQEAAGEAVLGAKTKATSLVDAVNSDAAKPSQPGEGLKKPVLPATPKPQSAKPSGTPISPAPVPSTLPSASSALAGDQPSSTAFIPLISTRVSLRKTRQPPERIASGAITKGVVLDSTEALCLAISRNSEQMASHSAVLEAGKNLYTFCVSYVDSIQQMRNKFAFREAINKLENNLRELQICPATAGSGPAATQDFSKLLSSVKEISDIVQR
# Chain of GRK2 (P25098 whole entry): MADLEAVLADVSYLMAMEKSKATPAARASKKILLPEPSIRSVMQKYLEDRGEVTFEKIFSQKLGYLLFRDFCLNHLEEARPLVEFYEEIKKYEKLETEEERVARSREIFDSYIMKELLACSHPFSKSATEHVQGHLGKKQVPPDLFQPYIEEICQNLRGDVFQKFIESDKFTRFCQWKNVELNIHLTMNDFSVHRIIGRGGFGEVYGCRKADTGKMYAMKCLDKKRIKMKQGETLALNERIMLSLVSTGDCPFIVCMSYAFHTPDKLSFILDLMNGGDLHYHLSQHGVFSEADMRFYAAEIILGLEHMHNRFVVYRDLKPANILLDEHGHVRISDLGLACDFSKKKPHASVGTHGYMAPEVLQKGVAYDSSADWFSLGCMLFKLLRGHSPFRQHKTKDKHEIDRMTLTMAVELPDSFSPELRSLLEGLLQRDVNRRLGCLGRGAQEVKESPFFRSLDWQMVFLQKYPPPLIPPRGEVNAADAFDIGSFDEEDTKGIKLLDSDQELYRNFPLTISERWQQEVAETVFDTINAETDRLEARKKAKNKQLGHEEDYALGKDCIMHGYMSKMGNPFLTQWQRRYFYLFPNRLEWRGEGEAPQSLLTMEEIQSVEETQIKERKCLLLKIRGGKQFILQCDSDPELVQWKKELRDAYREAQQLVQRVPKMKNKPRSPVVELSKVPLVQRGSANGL
# T4 sequence (P07947 whole entry): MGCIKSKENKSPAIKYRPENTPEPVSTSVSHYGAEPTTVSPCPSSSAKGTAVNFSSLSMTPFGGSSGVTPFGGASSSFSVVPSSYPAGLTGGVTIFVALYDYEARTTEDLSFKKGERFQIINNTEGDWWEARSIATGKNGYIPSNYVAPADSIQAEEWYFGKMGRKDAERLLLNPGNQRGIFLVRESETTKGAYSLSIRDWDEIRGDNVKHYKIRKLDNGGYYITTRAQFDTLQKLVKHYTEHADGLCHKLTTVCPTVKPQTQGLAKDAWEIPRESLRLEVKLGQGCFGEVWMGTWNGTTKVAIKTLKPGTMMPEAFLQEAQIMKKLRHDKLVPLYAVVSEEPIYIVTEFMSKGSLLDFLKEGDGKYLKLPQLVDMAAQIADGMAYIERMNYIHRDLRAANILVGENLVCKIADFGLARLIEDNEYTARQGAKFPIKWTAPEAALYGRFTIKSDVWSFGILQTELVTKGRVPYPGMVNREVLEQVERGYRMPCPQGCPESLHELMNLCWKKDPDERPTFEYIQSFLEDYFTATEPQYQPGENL
# Chain of SGK3 (Q96BR1 whole entry): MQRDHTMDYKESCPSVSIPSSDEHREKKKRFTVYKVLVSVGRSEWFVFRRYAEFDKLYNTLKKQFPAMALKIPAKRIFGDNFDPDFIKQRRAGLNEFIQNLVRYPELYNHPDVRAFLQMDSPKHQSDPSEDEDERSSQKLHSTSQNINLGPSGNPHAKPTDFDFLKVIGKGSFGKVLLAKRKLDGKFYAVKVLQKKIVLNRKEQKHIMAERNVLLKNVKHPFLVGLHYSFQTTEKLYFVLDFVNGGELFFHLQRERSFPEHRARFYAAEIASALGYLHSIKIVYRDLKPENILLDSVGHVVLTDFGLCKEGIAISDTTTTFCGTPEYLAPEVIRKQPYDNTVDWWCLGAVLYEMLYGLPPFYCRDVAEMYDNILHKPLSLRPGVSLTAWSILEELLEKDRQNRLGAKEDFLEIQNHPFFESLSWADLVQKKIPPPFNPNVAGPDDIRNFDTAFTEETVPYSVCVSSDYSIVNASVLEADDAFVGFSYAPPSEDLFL
# T1 sequence (Q5VT25 whole entry): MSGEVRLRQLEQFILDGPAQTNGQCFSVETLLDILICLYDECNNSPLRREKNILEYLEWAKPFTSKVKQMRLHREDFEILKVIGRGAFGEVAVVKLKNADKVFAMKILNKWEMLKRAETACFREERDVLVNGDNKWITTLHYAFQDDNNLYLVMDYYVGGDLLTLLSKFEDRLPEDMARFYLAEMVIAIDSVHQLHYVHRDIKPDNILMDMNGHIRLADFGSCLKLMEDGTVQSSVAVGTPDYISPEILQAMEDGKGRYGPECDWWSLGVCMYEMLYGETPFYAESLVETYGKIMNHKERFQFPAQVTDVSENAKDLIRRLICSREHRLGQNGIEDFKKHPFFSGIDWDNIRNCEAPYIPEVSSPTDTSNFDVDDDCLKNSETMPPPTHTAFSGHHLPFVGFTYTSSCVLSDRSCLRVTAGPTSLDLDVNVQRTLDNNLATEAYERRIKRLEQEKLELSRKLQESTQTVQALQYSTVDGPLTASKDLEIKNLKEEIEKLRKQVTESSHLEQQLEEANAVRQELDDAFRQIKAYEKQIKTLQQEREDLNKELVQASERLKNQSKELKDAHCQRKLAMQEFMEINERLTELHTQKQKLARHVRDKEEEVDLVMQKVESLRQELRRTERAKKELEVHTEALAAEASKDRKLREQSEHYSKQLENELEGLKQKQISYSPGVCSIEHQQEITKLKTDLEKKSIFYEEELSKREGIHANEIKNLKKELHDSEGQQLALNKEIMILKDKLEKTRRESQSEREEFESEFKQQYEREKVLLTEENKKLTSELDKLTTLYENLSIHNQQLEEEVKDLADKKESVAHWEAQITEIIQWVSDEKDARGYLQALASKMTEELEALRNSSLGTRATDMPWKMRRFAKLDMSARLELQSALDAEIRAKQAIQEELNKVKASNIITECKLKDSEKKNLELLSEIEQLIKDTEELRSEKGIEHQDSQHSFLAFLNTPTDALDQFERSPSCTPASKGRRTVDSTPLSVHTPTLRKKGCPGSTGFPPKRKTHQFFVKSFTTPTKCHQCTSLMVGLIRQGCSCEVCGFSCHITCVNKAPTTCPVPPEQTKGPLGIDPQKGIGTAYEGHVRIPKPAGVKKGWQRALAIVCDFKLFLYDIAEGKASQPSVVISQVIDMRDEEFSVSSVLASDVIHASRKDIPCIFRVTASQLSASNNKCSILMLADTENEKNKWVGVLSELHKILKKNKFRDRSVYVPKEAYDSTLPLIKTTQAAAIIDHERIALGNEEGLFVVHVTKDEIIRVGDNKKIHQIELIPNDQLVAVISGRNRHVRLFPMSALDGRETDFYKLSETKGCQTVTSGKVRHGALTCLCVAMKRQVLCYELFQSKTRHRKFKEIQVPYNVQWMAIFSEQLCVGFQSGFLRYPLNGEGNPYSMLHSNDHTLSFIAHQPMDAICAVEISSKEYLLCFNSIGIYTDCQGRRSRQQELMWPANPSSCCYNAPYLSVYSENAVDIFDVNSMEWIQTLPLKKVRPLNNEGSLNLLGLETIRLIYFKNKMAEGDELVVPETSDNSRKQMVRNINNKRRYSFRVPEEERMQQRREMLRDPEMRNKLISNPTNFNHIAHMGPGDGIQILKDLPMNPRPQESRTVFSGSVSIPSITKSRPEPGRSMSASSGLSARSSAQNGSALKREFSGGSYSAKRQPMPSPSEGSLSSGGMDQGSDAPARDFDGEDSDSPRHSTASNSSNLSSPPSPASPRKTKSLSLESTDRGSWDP
# Chain of CDK3 (Q00526 whole entry): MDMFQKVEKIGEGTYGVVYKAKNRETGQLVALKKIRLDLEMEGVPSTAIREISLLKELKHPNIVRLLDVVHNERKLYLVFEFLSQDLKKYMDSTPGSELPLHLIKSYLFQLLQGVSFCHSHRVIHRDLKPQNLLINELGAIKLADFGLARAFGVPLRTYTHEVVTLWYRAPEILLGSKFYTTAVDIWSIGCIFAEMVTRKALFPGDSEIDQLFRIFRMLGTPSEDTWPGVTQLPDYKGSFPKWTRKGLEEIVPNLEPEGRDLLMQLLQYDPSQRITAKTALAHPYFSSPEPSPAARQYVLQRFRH
smiles,measurement,setting,value
c1ccc2c(c1)Sc1ccccc1N2CCN1CCOCC1 [J54],remaining binding,[1],93%
same,remaining binding,[2],100%
same,remaining binding,[3],100%
same,remaining binding,[4],99%
same,remaining binding,[5],100%
same,remaining binding,[6],89%
same,remaining binding,[7],16%
same,remaining binding,[8],94%
same,remaining binding,[9],98%
same,remaining binding,[10],95%
same,remaining binding,[11],100%
same,remaining binding,[12],100%
same,remaining binding,[13],100%
same,remaining binding,[14],100%
same,remaining binding,[15],82%
same,remaining binding,[16],100%
same,remaining binding,[17],17%
same,remaining binding,[18],100%
same,remaining binding,[19],100%
